Marks after values point to notes of the source that are not given here.
Columns and labels:
[1] = test system: Mpeg1 mRNA; assay: mRNA quantification (RT PCR) of Mpeg1 in muscles of mdx mice; format: in vivo, mouse; details: mdx mice muscle
From the text: (§1) A total of a ninety C57BU10ScSn-Dmdmdx/J male mice, 3 weeks of age (+/-3days), were transferred to the in vivo research laboratory in Bar Harbor, Me. Additional ten […] male mice 3 weeks of age (+/-3 days) were also transferred and served as a wild-type control group. The mice were ear notched for identification and housed in ventilated polysulfone cages with HEPA filtered air at a density of 3-4 mice per cage. The animal room was lit entirely with artificial fluorescent lighting on controlled 12 hour light/dark cycle (6 a.m. to 6 p.m. light). […] The animal room was set for 15 air exchanges per hour. Filtered tap water acidified to a pH of 2.8 to 3.2 was provided ad libitum. […] Prior to study initiation, mice were acclimated for 3 days. Mice were tested for grip strength and in the open field at ages 25 and 26 days, and drug regimen was initiated at age 27 days. Mice were monitored twice weekly for clinical observations and body weights. […] 24 hours after the second open field tests, blood was collected by retro-orbital bleeding, and mice were humanely euthanized by CO2 asphyxiation. One triceps surae was collected fresh and processed for immune cell sorting, one tibialis anterior was preserved in RNALater for RNA extraction, one whole hind limb and the diaphragm were fixed in 2% paraformaldehyde overnight at 4° C. for paraffin embedding and histology stains. Total RNAs were extracted with a modification of the Trizol method, reverse transcribed, and mRNAs of TGFβ, and the following inflammation markers were quantified by the SYBR green method with GAPDH as a normalizer: […]

[2] = test system: CD48 mRNA; assay: mRNA quantification (RT PCR) of CD48 in muscles of mdx mice; format: in vivo, mouse
From the text: as §1

[3] = test system: CD11b+Ly6Chigh profibrotic : CD11b+Ly6Clow anti-fibrotic myeloid cells; assay: Ratio of profibrotic to anti-fibrotic myeloid cells in mdx mouse muscle; format: in vivo; details: both doses
From the text: In this example, labelled antibodies were used to assess infiltration of inflammatory myeloid and lymphoid cells into muscles of mdx mice following treatment of the mice with different doses of the glucocorticoid prednisolone, and the VAP-1 inhibitors carbidopa and benserazide. […] Labelled antibody to CD11b was used to assess infiltration of inflammatory myeloid cells into muscles of mdx mice. Labelled antibody to Ly6C was used to assess infiltration of pro- and anti-inflammatory monocytes into muscles of mdx mice. Labelled antibody to CD4 and CD8a antigen was used to assess infiltration of Th cells (CD4^+CD8^−) and double negative (CD4^−CD8^−) T cells into muscles of mdx mice.
A total of a ninety C57BU10ScSn-Dmdmdx/J male mice, 3 weeks of age (+/−3days), were transferred to the in vivo research laboratory in Bar Harbor, Me. Additional ten C57BU10ScSnJ male mice 3 weeks of age (+/−3 days) were also transferred and served as a wild-type control group. The mice were ear notched for identification and housed in ventilated polysulfone cages with HEPA filtered air at a density of 3-4 mice per cage. […]

[4] = test system: CD11b+Ly6Chigh profibrotic myeloid cells (Ly6C+ monocytes); assay: Cell sorting: recruitment of CD11b+Ly6Chigh profibrotic myeloid cells into muscles of mdx mice; format: in vivo, mouse; details: mdx mice muscle; for % change compared to vehicle (CD11b+Ly6Chigh profibrotic myeloid cells) / % of viable cells (CD11b+Ly6Chigh profibrotic myeloid cells): 4 weeks
From the text: (§2) In this example, labelled antibodies were used to assess infiltration of inflammatory myeloid and lymphoid cells into muscles of mdx mice following treatment of the mice with different doses of the glucocorticoid prednisolone, and the VAP-1 inhibitors carbidopa and benserazide. CD11b is a transmembrane glycoprotein which is expressed on the surface of granulocytes (including neutrophils and eosinophils), monocytes, NK cells, dendritic cells, tissue macrophages and subsets of T and B cells. Labelled antibody to CD11b was used to assess infiltration of inflammatory myeloid cells into muscles of mdx mice. Labelled antibody to Ly6C was used to assess infiltration of pro- and anti-inflammatory monocytes into muscles of mdx mice. Labelled antibody to CD4 and CD8a antigen was used to assess infiltration of Th cells (CD4^+CD8^-) and double negative (CD4^-CD8^-) T cells into muscles of mdx mice. A total of a ninety C57BU10ScSn-Dmdmdx/J male mice, 3 weeks of age (+/-3days), were transferred to the in vivo research laboratory in Bar Harbor, Me. Additional ten […] male mice 3 weeks of age (+/-3 days) were also transferred and served as a wild-type control group. The mice were ear notched for identification and housed in ventilated polysulfone cages with HEPA filtered air at a density of 3-4 mice per cage. The animal room was lit entirely with artificial fluorescent lighting on controlled 12 hour light/dark cycle (6 a.m. to 6 p.m. light). […] The animal room was set for 15 air exchanges per hour. Filtered tap water acidified to a pH of 2.8 to 3.2 was provided ad libitum. […] Prior to study initiation, mice were acclimated for 3 days. Mice were tested for grip strength and in the open field at ages 25 and 26 days, and drug regimen was initiated at age 27 days. Mice were monitored twice weekly for clinical observations and body weights. […] 24 hours after the second open field tests, blood was collected by retro-orbital bleeding, and mice were humanely euthanized by CO2 asphyxiation. One triceps surae was collected fresh and processed for immune cell sorting, one tibialis anterior was preserved in RNALater for RNA extraction, one whole hind limb and the diaphragm were fixed in 2% paraformaldehyde overnight at 4° C. for paraffin embedding and histology stains. For immune cell sorting, muscle samples were enzymatically and mechanically dissociated following manufacturer instructions (Skeletal Muscle Dissociation KitCatalog no. 130-098-305, Miltenyi Biotec). Cells were stained with the following antibodies: [table] Stained cells were analyzed on a BD LSR II cytometer and counts of different populations were expressed in percentage of the number of live cells counted.

[5] = test system: macrophages; assay: Staining of murine F4/80 antigen in diaphragm sections of mdx mice (macrophage infiltration); format: in vivo, mouse; details: 20 mg/kg po once per day, 6 weeks, 12 week old mdx mice
From the text: (§3) The most studied animal model for DMD is the mdx mouse. This was first described by Bulfield et al (Proc. Natl. Acad. Sci. USA, 1984, 81:1189-1192). It has a point mutation within its dystrophin gene, and as a result the mouse has no functional dystrophin in its muscles. […] As it ages, certain muscle types (including the diaphragm) show weakness and increased fibrosis. […] This provides a quantitative framework for studying the pathogenesis of dystrophy (Stedman et al, Nature, 1991, 352, 536-539).
(§4) 12 week old mdx mice were treated with benserazide (20 mg/kg, po, once per day) or vehicle (water, once per day), in groups of 8 mice. After 6 weeks of treatment, diaphragms of the mice were collected and flash frozen in liquid nitrogen-cooled isopentane. The sections were stored on slides at −20° C. until required.
(§5) Hematoxylin and eosin (H & E) staining was used to show cytoplasmic, nuclear, and extracellular matrix features. Hematoxylin stains nucleic acids, and eosin stains proteins nonspecifically. Staining of F4/80 antigen (a glycoprotein expressed by murine macrophages) was used to show macrophages.

[6] = test system: Lgals3 mRNA; assay: mRNA quantification (RT PCR) of Lgals3 in muscles of mdx mice; format: in vivo, mouse
From the text: as §1

[7] = test system: CD11b+ myeloid cells; assay: Cell sorting: recruitment of CD11b+ myeloid cells into muscles of mdx mice; format: in vivo, mouse; details: mdx mice muscle; for % change compared to vehicle (CD11b+ myeloid cells) / % of viable cells (CD11b+ myeloid cells): 4 weeks
From the text: as §2

[8] = test system: lymphoid CD4+CD8- T cells; assay: Cell sorting: recruitment of lymphoid CD4+CD8- T cells into muscles of mdx mice; format: in vivo, mouse; details: mdx mice muscle
From the text: as §2

[9] = test system: diaphragms of mdx mice; assay: H & E staining of diaphragm sections of mdx mice (inflammatory infiltrates); format: in vivo, mouse; details: 20 mg/kg po once per day, 6 weeks, 12 week old mdx mice
From the text: as §3, §4, §5

[10] = test system: CD53 mRNA; assay: mRNA quantification (RT PCR) of CD53 in muscles of mdx mice; format: in vivo, mouse
From the text: as §1

[11] = test system: TNF mRNA; assay: mRNA quantification (RT PCR) of TNF in muscles of mdx mice; format: in vivo, mouse
From the text: as §1

[12] = test system: lymphoid CD4-CD8- (double negative, DN) T cells; assay: Cell sorting: recruitment of lymphoid CD4-CD8- (double negative, DN) T cells into muscles of mdx mice; format: in vivo, mouse; details: mdx mice muscle
From the text: as §2

[13] = test system: TGFβ mRNA; assay: mRNA quantification (RT PCR) of pro-fibrotic growth factor TGFβ in muscles of mdx mice; format: in vivo, mouse
From the text: as §1

[14] = test system: CD11b mRNA; assay: mRNA quantification (RT PCR) of CD11b in muscles of mdx mice; format: in vivo, mouse
From the text: as §1

[15] = test system: IL-6 mRNA; assay: mRNA quantification (RT PCR) of IL-6 in muscles of mdx mice; format: in vivo, mouse; details: mdx mice muscle
From the text: as §1

[16] = test system: CD11b+Ly6Clow anti-fibrotic myeloid cells (Ly6C- monocytes); assay: Cell sorting: recruitment of CD11b+Ly6Clow anti-fibrotic myeloid cells into muscles of mdx mice; format: in vivo, mouse; details: for % change compared to vehicle (CD11b+Ly6Clow anti-fibrotic myeloid cells) / % of viable cells (CD11b+Ly6Clow anti-fibrotic myeloid cells): 4 weeks, mdx mice muscle
From the text: as §2

[17] = test system: Ly6C1 mRNA; assay: mRNA quantification (RT PCR) of Ly6C1 in muscles of mdx mice; format: in vivo, mouse; details: mdx mice muscle
From the text: as §1

[18] = test system: T cells; details: correlated with reduction in muscle necrosis and fibrosis; very early studies; cited from earlier work
[19] = test system: eosinophils; details: DMD / mdx dystrophic muscle, previous studies; cited from earlier work
[20] = 20 mg/kg po twice/day, mdx mice muscle, GAPDH as normalizer
[21] = treatment alone, mdx mouse muscle
[22] = doses as in the table (carbidopa 100, benserazide 20 mg/kg po twice/day; prednisolone 1 mg/kg ip once/day)

NC(CO)C(=O)NNCc1ccc(O)c(O)c1O (stereo not drawn) [Benserazide]
effect on Mpeg1 mRNA level [1]: No effects | CD48 mRNA level [2, 20]: 0.85 | effect on the level of CD48 mRNA [2, 21]: no significant effect | relative levels of pro- and anti-fibrotic myeloid cells [3]: not affected | % change compared to vehicle (CD11b+Ly6Chigh profibrotic myeloid cells) ([4]; 7 mg/kg po twice/day): −11.5% | % of viable cells (CD11b+Ly6Chigh profibrotic myeloid cells) ([4]; 7 mg/kg po twice/day): 6.49% | % change compared to vehicle (CD11b+Ly6Chigh profibrotic myeloid cells) ([4]; 20 mg/kg po twice/day): −26.9% | % of viable cells (CD11b+Ly6Chigh profibrotic myeloid cells) ([4]; 20 mg/kg po twice/day): 5.36% | effect on recruitment of profibrotic myeloid cells compared with vehicle ([4]; both doses): little, if any, statistically significant effect | reduction in macrophage infiltration compared to vehicle (F4/80 staining) [5]: ~50% | Lgals3 mRNA level [6, 20]: 0.95 | effect on the level of Lgals3 mRNA [6, 21]: no significant effect | % change compared to vehicle (CD11b+ myeloid cells) ([7]; 7 mg/kg po twice/day): −13.7% | % of viable cells (CD11b+ myeloid cells) ([7]; 7 mg/kg po twice/day): 31.4% | % change compared to vehicle (CD11b+ myeloid cells) ([7]; 20 mg/kg po twice/day): −32.4% | % of viable cells (CD11b+ myeloid cells) ([7]; 20 mg/kg po twice/day): 24.6* % | reduction of CD11b+ myeloid cell recruitment compared with vehicle ([7]; higher dose of benserazide): approximately one-third | % change compared to vehicle (lymphoid CD4+CD8- T cells) ([8]; 20 mg/kg po twice/day, 4 weeks): −37.0% | % of viable cells (lymphoid CD4+CD8- T cells) ([8]; 20 mg/kg po twice/day, 4 weeks): 9.2* % | reduction of recruitment of lymphoid CD4+CD8- T cells compared with vehicle [8, 22]: over 50% | reduction in inflammatory infiltrates compared to vehicle (H & E staining) [9]: ~50% | CD53 mRNA level [10, 20]: 0.95 | effect on the level of CD53 mRNA [10, 21]: not significantly affected | TNF mRNA level [11, 20]: 0.79 | effect on the level of TNF mRNA [11, 21]: No significant effect | % change compared to vehicle (lymphoid CD4-CD8- DN T cells) ([12]; 20 mg/kg po twice/day, 4 weeks): −44.8% | % of viable cells (lymphoid CD4-CD8- DN T cells) ([12]; 20 mg/kg po twice/day, 4 weeks): 18** % | reduction of recruitment of lymphoid DN T cells compared with vehicle [12, 22]: over 50% | % change compared to vehicle (TGFβ mRNA) ([13]; 20 mg/kg po twice/day, mdx mice muscle): −34.7% | TGFβ mRNA [13, 20]: 0.79 | reduction of the TGFβ mRNA level (fraction in words) ([13]; treatment alone, muscle of mdx mice): over a third | CD11b mRNA level [14, 20]: 1.12 | effect on the level of CD11b mRNA [14, 21]: not significantly affected | effect on IL-6 mRNA level [15]: No effects | % change compared to vehicle (CD11b+Ly6Clow anti-fibrotic myeloid cells) ([16]; 7 mg/kg po twice/day): −16.5% | % of viable cells (CD11b+Ly6Clow anti-fibrotic myeloid cells) ([16]; 7 mg/kg po twice/day): 22.7% | % change compared to vehicle (CD11b+Ly6Clow anti-fibrotic myeloid cells) ([16]; 20 mg/kg po twice/day): −27.9% | % of viable cells (CD11b+Ly6Clow anti-fibrotic myeloid cells) ([16]; 20 mg/kg po twice/day): 19.6* % | inhibition of recruitment of anti-fibrotic myeloid cells compared with vehicle ([16]; higher dose of benserazide, statistically significant): 27.9% | effect on Ly6C1 mRNA level [17]: No effects

C[C@]12C=CC(=O)C=C1CC[C@@H]1[C@@H]2C(=O)C[C@@]2(C)[C@H]1CC[C@]2(O)C(=O)CO [Prednisone, prednisone]
effect on T cells in DMD patients [18]: reduction in T cells | effect on eosinophil infiltration [19]: reduce eosinophil infiltration

Source: patent publication US20160101072A1, “Therapeutic uses of enzyme inhibitors” (Proximagen Limited, priority 2013, published 2016)
